# US11242335B2, “Fluorine-substituted indazole compounds and uses thereof” (SUNSHINE LAKE PHARMA CO., LTD., priority 2017, dated 2022)
# Experiments:
# [1] = Pharmacokinetics in male SD rats after intravenous and oral administration; format: in vivo; details: for F: po 5 mg/kg versus iv 1 mg/kg; for AUC(0-t) / Cmax / Tmax / clearance / half-life / Vd: rat, plasma; for Vd: read-out: Vss
# Description: Preparation of test compound solution: The test compound was formulated with 5% dimethylsulfoxide, 5% Solutol HS 15 and 90% physiological saline to give solution, which was used for oral and intravenous administration.
# Male SD rats weighing 190-250 g were randomly divided into two groups, each group had three members; one group received test compound at a dose of 1.0 mg/kg by intravenous injection, the other group received test compound at a dose of 2.5 or 5.0 mg/kg by oral. After dosing, blood samples were collected at time points of 0.0833, 0.25, 0.5, 1.0, 2.0, 4.0, 7.0 and 24 h. Standard curve was plotted based on concentrations of the samples in a suitable range, the concentrations of test compounds in plasma samples were determined by using AB SCIEX API4000 LC-MS/MS in MRM mode. Pharmacokinetic parameters were calculated according to drug concentration-time curve using a noncompartmental method by WinNonLin 6.3 software.
# [2] = target: T1, soluble guanylate cyclase (sGC) expressed by CHO-K1-Rat sGC monoclonal cell line (Rattus norvegicus, UniProt P19686+P20595); assay: Effect on recombinant guanylate cyclase reporter cell line (CHO-K1-Rat sGC, Cisbio cGMP HTRF); format: cell-based; details: activating soluble guanylate cyclase
# T1 construct: expressed in transfected cells; host or cells: CHO-K1
# T1 sequence (P19686 1-690): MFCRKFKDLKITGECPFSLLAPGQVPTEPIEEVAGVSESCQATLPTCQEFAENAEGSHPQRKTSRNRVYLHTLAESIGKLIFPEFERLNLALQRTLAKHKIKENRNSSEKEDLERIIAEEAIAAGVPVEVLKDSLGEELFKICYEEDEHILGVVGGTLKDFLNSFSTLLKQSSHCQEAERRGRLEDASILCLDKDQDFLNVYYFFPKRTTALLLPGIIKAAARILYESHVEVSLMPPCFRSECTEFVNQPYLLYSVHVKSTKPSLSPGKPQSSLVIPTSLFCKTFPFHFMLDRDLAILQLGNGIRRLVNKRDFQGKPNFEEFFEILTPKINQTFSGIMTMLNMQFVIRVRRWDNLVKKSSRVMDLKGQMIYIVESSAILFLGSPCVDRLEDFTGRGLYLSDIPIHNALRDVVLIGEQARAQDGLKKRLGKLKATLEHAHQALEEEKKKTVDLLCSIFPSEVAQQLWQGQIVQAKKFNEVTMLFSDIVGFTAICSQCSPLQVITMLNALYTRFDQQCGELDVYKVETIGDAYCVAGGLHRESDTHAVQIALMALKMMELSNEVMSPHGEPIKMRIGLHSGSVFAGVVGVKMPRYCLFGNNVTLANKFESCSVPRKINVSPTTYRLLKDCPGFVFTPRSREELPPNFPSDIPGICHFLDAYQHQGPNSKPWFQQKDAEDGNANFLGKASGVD
# T1 sequence (P20595 1-619): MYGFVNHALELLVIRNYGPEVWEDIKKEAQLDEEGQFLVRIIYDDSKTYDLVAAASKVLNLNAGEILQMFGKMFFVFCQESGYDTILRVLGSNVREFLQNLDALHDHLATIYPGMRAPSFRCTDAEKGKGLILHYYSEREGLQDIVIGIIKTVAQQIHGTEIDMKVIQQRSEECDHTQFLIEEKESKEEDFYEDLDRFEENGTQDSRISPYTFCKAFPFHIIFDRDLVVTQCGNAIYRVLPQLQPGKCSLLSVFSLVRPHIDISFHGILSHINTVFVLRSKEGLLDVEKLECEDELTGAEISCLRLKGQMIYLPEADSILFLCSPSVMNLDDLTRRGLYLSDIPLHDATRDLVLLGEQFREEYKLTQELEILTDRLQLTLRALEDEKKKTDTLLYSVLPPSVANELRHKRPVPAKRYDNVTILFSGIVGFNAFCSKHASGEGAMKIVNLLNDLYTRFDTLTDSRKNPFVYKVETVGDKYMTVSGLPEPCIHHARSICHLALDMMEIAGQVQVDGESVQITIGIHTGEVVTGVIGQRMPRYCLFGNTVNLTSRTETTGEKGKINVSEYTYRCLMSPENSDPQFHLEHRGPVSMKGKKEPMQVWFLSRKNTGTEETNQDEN
# Excerpt: Transfection of Soluble Guanylate Cyclase (sGC) gene into CHO-K1 cells and selection of cells with stably and highly expressed sGC: Rat sGCα1 and Rat sGCβ1 Genes were synthesized, and then pcDNA3.1(+)-rat sGCα1 and pcDNA3.1/Hygro (+)-rat sGCβ1 plasmid were constructed; the plasmid was co-transfected into CHO-K1 cells, and a positive clone cell line stably expressing CHO-K1-Rat sGC was selected using the Cisbio cGMP HTRF assay kit.
# The activity of the compound on the CHO-K1-Rat sGC monoclonal cell line was determined: The CHO-K1-Rat sGC monoclonal cell line was cultured, and used for test operation at degree of fusion of about 70% to 90%. The cells were resuspended in complete medium after TrypLE digestion; the cells were inoculated in a 384-well (low volume tissues culture treated) cell culture plate at a seeding density of 7500/well in 25 μL of complete medium and incubated at 37° C. in 5% CO2 atmosphere for 20 hours; the test compounds were dissolved and dilute with DMSO to give 10 concentration gradients (2× working concentration); 384-well cell culture plates were centrifugated (200 g) for 3 seconds by inversion at RT, medium was removed; The test compounds in each different concentration gradient and corresponding reagent were added into each cell well according to the detection process of Cisbio cGMP HTRF assay kit. The data were collected with Envision HTRF detector and the EC50 value of each compound in activating soluble guanylate cyclase was calculated.
# hERG potassium channel = target: T2, hERG potassium channel (Homo sapiens, UniProt Q12809); assay: Inhibition of hERG potassium channel, manual patch clamp in HEK293 cells; format: cell-based; details: hERG tail current; HEK293 cells overexpressing hERG; whole cell patch clamp; 22-24° C.
# T2 construct: expressed in transfected cells; host or cells: HEK293
# T2 sequence (Q12809 whole entry): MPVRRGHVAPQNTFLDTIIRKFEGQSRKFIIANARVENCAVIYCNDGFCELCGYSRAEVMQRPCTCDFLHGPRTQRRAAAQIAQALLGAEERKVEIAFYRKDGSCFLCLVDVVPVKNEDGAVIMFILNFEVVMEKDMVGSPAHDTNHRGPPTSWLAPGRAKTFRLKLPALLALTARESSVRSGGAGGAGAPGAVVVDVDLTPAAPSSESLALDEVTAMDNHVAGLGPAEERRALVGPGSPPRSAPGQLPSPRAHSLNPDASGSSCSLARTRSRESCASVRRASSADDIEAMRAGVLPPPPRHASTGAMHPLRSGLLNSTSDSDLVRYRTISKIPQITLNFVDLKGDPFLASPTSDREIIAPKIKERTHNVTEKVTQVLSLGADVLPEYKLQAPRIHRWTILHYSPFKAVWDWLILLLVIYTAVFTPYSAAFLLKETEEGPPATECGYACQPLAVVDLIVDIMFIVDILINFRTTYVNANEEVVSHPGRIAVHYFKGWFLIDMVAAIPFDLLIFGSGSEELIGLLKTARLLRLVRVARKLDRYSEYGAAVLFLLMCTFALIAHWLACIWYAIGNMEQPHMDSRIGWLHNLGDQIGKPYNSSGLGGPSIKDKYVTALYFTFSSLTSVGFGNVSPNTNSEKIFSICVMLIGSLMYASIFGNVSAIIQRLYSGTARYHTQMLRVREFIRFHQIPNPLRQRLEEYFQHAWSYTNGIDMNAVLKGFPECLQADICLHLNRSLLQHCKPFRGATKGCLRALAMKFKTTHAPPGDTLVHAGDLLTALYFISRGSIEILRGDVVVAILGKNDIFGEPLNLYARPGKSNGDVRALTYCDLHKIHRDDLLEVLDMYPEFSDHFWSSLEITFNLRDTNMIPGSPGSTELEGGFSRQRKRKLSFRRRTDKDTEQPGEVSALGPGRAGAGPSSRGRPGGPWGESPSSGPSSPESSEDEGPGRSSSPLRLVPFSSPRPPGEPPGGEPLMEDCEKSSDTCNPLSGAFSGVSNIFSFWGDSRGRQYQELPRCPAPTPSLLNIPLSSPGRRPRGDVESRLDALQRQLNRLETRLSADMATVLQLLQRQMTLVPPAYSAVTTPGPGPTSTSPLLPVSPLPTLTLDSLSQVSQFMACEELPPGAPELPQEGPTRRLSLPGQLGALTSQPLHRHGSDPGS
# Description: Each compound was weighed and dissolved in DMSO and diluted with DMSO to a serial solution (30, 10, 3.3, 1.1, 0.37 mM). The above serial solutions were diluted to 1000-fold with the extracellular fluid to prepare test solutions (final concentration was 30, 10, 3.3, 1.1, 0.37 μM respectively).
# The HEK293 cells that overexpressed the hERG potassium channel were cultured in a 37° C., 5% CO2 incubator, and the culture medium contained DMEM, 15% fetal bovine serum, and 1% penicillin-streptomycin. When the cell density reached 80% of the culture plate, the cells were digested with trypsin/EDTA and transferred to a centrifuge tube, centrifuged at 1000 rpm for 3 minutes, then supernatant was discarded, and the cell culture medium was added. The cells were mixed uniformly by gently blowing and beating. […]
# The whole cell recording mode was used to record the channel current in the experiment. Firstly, the extracellular fluid was perfused (approximately 2 mL per minute) and the data were continuous recorded, and the current was kept steady (the current decay was less than 5% in 5 minutes). […] The extracellular fluid containing the test compound was then perfused and the data were continuous recorded until the compound's inhibitory effect on the hERG current reached a steady state, at this time point the peak value of tail current was the current value after dosing. […]
Compound,F [1],"AUC(0-t) ([1]; iv, 1 mg/kg)","Cmax ([1]; iv, 1 mg/kg)","Tmax ([1]; iv, 1 mg/kg)","clearance ([1]; iv, 1 mg/kg)","half-life ([1]; iv, 1 mg/kg)","Vd ([1]; iv, 1 mg/kg)","AUC(0-t) ([1]; po, 5 mg/kg)","Cmax ([1]; po, 5 mg/kg)","Tmax ([1]; po, 5 mg/kg)","half-life ([1]; po, 5 mg/kg)",EC50 [2],IC50 (hERG potassium channel)
"COC(=O)N(C)c1c(N)nc(-c2nn(Cc3ccccc3F)c3c(F)cc(F)cc23)nc1N [Example 2, methyl (4,6-diamino-2-(5,7-difluoro-1-(2-fluorobenzyl)-1H-indazol-3-yl)pyrimidin-5-yl)(methyl)carbamate]",138.6%,2020 ng·h/mL,680 ng/mL,0.083 h,6.16 mL/min/kg,3.7 h,1.88 L/kg,14000 ng·h/mL,1130 ng/mL,2 h,3.61 h,220 nM,
"COC(=O)Nc1c(N)nc(-c2nn(Cc3ccccc3F)c3cc(F)ccc23)nc1N [Example 5, methyl (4,6-diamino-2-(6-fluoro-1-(2-fluorobenzyl)-1H-indazol-3-yl)pyrimidin-5-yl)carbamate]",93.4%,10300 ng·h/mL,2820 ng/mL,0.083 h,1.59 mL/min/kg,4.49 h,0.483 L/kg,39700 ng·h/mL,2690 ng/mL,3.5 h,10.9 h,,> 30000 nM
"COC(=O)N(C)c1c(N)nc(-c2nn(Cc3ccccc3F)c3cc(F)ccc23)nc1N [Example 6, methyl (4,6-diamino-2-(6-fluoro-1-(2-fluorobenzyl)-1H-indazol-3-yl)pyrimidin-5-yl)(methyl)carbamate]",135.3%,2700 ng·h/mL,1310 ng/mL,0.083 h,6.18 mL/min/kg,1.57 h,1.07 L/kg,18300 ng·h/mL,2480 ng/mL,1.33 h,2.98 h,230 nM,

# Continued, in another order:
F [1],"AUC(0-t) ([1]; iv, 1 mg/kg)","Cmax ([1]; iv, 1 mg/kg)","Tmax ([1]; iv, 1 mg/kg)","clearance ([1]; iv, 1 mg/kg)","half-life ([1]; iv, 1 mg/kg)","Vd ([1]; iv, 1 mg/kg)","AUC(0-t) ([1]; po, 5 mg/kg)","Cmax ([1]; po, 5 mg/kg)","Tmax ([1]; po, 5 mg/kg)","half-life ([1]; po, 5 mg/kg)",EC50 [2],Compound,IC50 (hERG potassium channel)
107.3%,1220 ng·h/mL,834 ng/mL,0.083 h,13.4 mL/min/kg,1.37 h,1.35 L/kg,6580 ng·h/mL,1080 ng/mL,1.67 h,2.45 h,82 nM,"COC(=O)N(C)c1c(N)nc(-c2nn(Cc3ccccc3F)c3c(F)cccc23)nc1N [Example 11, methyl (4,6-diamino-2-(7-fluoro-1-(2-fluorobenzyl)-1H-indazol-3-yl)pyrimidin-5-yl)(methyl)carbamate]",
109.8%,921 ng·h/mL,778 ng/mL,0.083 h,,0.916 h,6.38 L/kg,5010 ng·h/mL,1170 ng/mL,1.67 h,1.57 h,36 nM,"Nc1nc(-c2nn(Cc3ccccc3F)c3c(F)cccc23)nc(N)c1N1CCCS1(=O)=O [Example 13, 2-(4,6-diamino-2-(7-fluoro-1-(2-fluorobenzyl)-1H-indazol-3-yl)pyrimidin-5-yl)isothiazolidine 1,1-dioxide]",
86%,2060 ng·h/mL,981 ng/mL,0.083 h,7.91 mL/min/kg,5.56 h,2.03 L/kg,8860 ng·h/mL,768 ng/mL,3 h,3.13 h,300 nM,"Nc1nc(-c2nn(Cc3ccccc3F)c3c(F)cccc23)nc(N)c1N1CCOC1=O [Example 15, 3-(4,6-diamino-2-(7-fluoro-1-(2-fluorobenzyl)-1H-indazol-3-yl)pyrimidin-5-yl)oxazolidin-2-one]",
